Reference: patent US20100120752A1, “MUSCARINIC AGONISTS TO TREAT IMPULSE CONTROL DISORDERS” (Solvay Pharmaceuticals, B.V., priority 2007, published 2010)

Columns and labels:
Type in all cases: in vivo, rat
[1] = system: MK801 induced increase of anticipatory responses of rats; assay: 5-Choice Serial Reaction Time task, interaction studies against MK801
Excerpt: (§1) Male Wistar rats weighing 330-450 g (Harlan, The Netherlands) were housed in pairs under a 12-h light/dark cycle (lights off at 7:00 a.m.) and had daily access to a limited amount of food that kept their body weight at approximately 85% of the free feeding weight. Water was available ad libitum. All procedures were in compliance with the European Communities Council Directive of Nov. 24, 1986 (86/609 EEC).
(§2) Standard 5-CSRT boxes from MED associates Inc. Georgia, Vt. US were used. The curved wall of the chamber contained five 1.6 cm2 holes, 2.2 cm deep, 2 cm above floor level. […] In every hole a yellow stimulus light was presented. A food dispenser was located at the opposite wall. The box was illuminated by a 28 Volt 100 mA house light. The 5-CSRT boxes were placed in sound attenuating cubicles. On-line control of the apparatus and data collection were performed by a MED-PC experimental apparatus programming system (Tatham, 1989), running on a Dell Optiplex GX1 PC.
(§3) Rats were first trained to collect reinforcement pellets from the food dispenser and to collect reinforcements that were placed in the 5 holes in order to habituate the animals to the 5-CSRT task apparatus. Next, training of the 5-CSRT task started. These sessions started by illumination of the light in one of the holes for 30 seconds (stimulus duration). A response by the rat into the illuminated hole or a response in that particular hole for a short period of time after the illumination (the limited hold 60 sec) was rewarded with the delivery of a food pellet, termination of the trial and a correct response was recorded. The light stimulus was presented in each of the holes 20 times during a session (total of 100 presentations), and the order of presentations was randomized. […] After termination of the trial a variable inter-trial interval was started (1, 3, 5, 7 or 9 sec) after which the next trial was started. Upon reaching a 75% correct performance level the duration of illumination of the light stimulus was reduced until a presentation of 0.5 sec (from 30 to 20, 10, 5, 2, 1, 0.9; 0.8; 0.7; 0.6; 0.5.) and a limited hold of 5 sec (in three steps from 30 to 20, 10 and 5 sec), was reached. (Robbins, 1993).
(§4) The following parameters were measured (Muir, 1996):
(§5) Accuracy: the percentage correct responses divided by the total responses made.
(§6) Errors of omission: the number of missed stimulus presentations.
(§7) Correct responses: the number of correct responses.
(§8) Fault responses: the number of responses in the wrong hole.
(§9) Anticipatory responses: the number of premature responses made preceding the presentation of the light stimulus.
(§10) Persevering responses: responses emitted after an incorrect or correct response.
Both xanomeline and desmethylclozapine were each tested in the same dose range against 0.05 mg/kg (s.c.) MK801, a dose shown to elicit unequivocal impulsive behavior (see Table 1).

[2] = system: Male Wistar rats; assay: 5-Choice Serial Reaction Time task, MK801 alone; conditions: for number of anticipatory responses / number of correct responses / number of fault responses / number of missed responses / percentage of correct responses / persevering responses / total number of responses: ±S.E.M.
Excerpt: as §1, §2, §3, §4, §5, §6, §7, §8, §9, §10
MK801 was tested in a Latin hexagon design, meaning that each rat received all test dosages (0, 0.01, 0.025 and 0.05 mg/kg s.c.) in a random order.

[3] = system: Male Wistar rats; assay: 5-Choice Serial Reaction Time task, xanomeline or desmethylclozapine alone; conditions: for number of anticipatory responses / number of correct responses / number of fault responses / number of missed responses / percentage of correct responses / persevering responses / total number of responses: ±S.E.M.
Excerpt: as §1, §2, §3, §4, §5, §6, §7, §8, §9, §10
Xanomeline, a mixed muscarine-M1 and muscarine-M4 agonist, and desmethylclozapine, a muscarinic-M1 agonist and muscarinic-M4 antagonist, were each tested in a Latin hexagon design, meaning that each rat received all test-dosages (0, 1, 3 and 10 mg/kg i.p.) in a random order.

[4] = 0.05 mg/kg (s.c.) MK801 with 0 mg/kg desmethylclozapine, ±SEM
[5] = 0.05 mg/kg (s.c.) MK801 with 0 mg/kg xanomeline, ±SEM
[6] = evident at 0.025 mg/kg and 0.05 mg/kg, p<0.05
[7] = first series, MK801 0.01 mg/kg s.c.
[8] = first series, MK801 0.025 mg/kg s.c.
[9] = first series, MK801 0.05 mg/kg s.c.
[10] = second series, MK801 0.01 mg/kg s.c.
[11] = second series, MK801 0.025 mg/kg s.c.
[12] = second series, MK801 0.05 mg/kg s.c.
[13] = 1 mg/kg against 0.05 mg/kg (s.c.) MK801, ±SEM
[14] = 3 mg/kg against 0.05 mg/kg (s.c.) MK801, ±SEM
[15] = 10 mg/kg against 0.05 mg/kg (s.c.) MK801, ±SEM

SMILES: CC12NC(Cc3ccccc31)c1ccccc12 (centres unmarked) [MK801, dizocilpine]
- % correct responses [1, 4]: 66.2 ± 3.8%
- nr anticipatory resp [1, 4]: 116.8 ± 19.9
- nr of correct resp [1, 4]: 53.8 ± 4.4
- nr of fault resp [1, 4]: 25.9 ± 2.1
- nr of missed resp [1, 4]: 20.3 ± 3.7
- persevering resp [1, 4]: 20.2 ± 3.2
- total nr of resp [1, 4]: 79.7 ± 3.7
- % correct resp [1, 5]: 66.9 ± 3.5%
- nr anticipatory resp [1, 5]: 133.8 ± 23.5
- nr of correct resp [1, 5]: 53.3 ± 3.9
- nr of fault resp [1, 5]: 25.9 ± 2.7
- nr of missed resp [1, 5]: 20.8 ± 3.4
- persevering resp [1, 5]: 16.9 ± 2.6
- total nr of resp [1, 5]: 79.3 ± 3.4
- effect on missed responses [2, 6]: decreased
- effect on number of anticipatory responses [2, 6]: boosted
- effect on persevering responses [2, 6]: boosted
- effect on total number of responses [2, 6]: boosted
- number of anticipatory responses [2, 7]: 51.3 ± 5.4
- number of correct responses [2, 7]: 52.6 ± 3.3
- number of fault responses [2, 7]: 19.8 ± 2.2
- number of missed responses [2, 7]: 27.7 ± 3.3
- percentage of correct responses [2, 7]: 72.6 ± 2.8%
- persevering responses [2, 7]: 7.9 ± 1
- total number of responses [2, 7]: 72.3 ± 3.3
- number of anticipatory responses [2, 8]: 73.2 ± 8.7
- number of correct responses [2, 8]: 53.8 ± 3.9
- number of fault responses [2, 8]: 22.6 ± 2.7
- number of missed responses [2, 8]: 23.6 ± 2.9
- percentage of correct responses [2, 8]: 70.0 ± 3.7%
- persevering responses [2, 8]: 17.7 ± 4.1
- total number of responses [2, 8]: 76.4 ± 2.9
- number of anticipatory responses [2, 9]: 148.6 ± 38.6
- number of correct responses [2, 9]: 55.3 ± 3.2^
- number of fault responses [2, 9]: 26.0 ± 2.7^
- number of missed responses [2, 9]: 18.7 ± 3.1
- percentage of correct responses [2, 9]: 68.0 ± 3%
- persevering responses [2, 9]: 28.2 ± 4.7
- total number of responses [2, 9]: 81.3 ± 3.1
- number of anticipatory responses [2, 10]: 78.1 ± 14.8
- number of correct responses [2, 10]: 60.8 ± 2.1
- number of fault responses [2, 10]: 21.8 ± 2.1
- number of missed responses [2, 10]: 17.5 ± 2.1
- percentage of correct responses [2, 10]: 73.8 ± 2.3%
- persevering responses [2, 10]: 11.1 ± 3.1
- total number of responses [2, 10]: 82.5 ± 2.1
- number of anticipatory responses [2, 11]: 97.3 ± 16.2
- number of correct responses [2, 11]: 62.7 ± 2.9
- number of fault responses [2, 11]: 21.8 ± 1.9
- number of missed responses [2, 11]: 15.6 ± 1.9
- percentage of correct responses [2, 11]: 74.0 ± 2.5%
- persevering responses [2, 11]: 10.7 ± 1.7
- total number of responses [2, 11]: 84.4 ± 1.9
- number of anticipatory responses [2, 12]: 148.3 ± 29.8
- number of correct responses [2, 12]: 62.3 ± 2.9^
- number of fault responses [2, 12]: 23.3 ± 2.3^
- number of missed responses [2, 12]: 14.5 ± 1.8
- percentage of correct responses [2, 12]: 72.7 ± 2.6^ %
- persevering responses [2, 12]: 18.8 ± 4.2
- total number of responses [2, 12]: 85.5 ± 1.8
- effect on numbers of correct responses ([2]; summary of table 1): does not influence
- effect on numbers of fault responses ([2]; summary of table 1): does not influence

SMILES: Clc1ccc2c(c1)N=C(N1CCNCC1)c1ccccc1N2 [desmethylclozapine]
- % correct resp [1, 13]: 67.2 ± 2.6%
- nr anticipatory resp [1, 13]: 141.8 ± 20.8
- nr of correct resp [1, 13]: 52.5 ± 3.4
- nr of fault resp [1, 13]: 25.1 ± 1.9
- nr of missed resp [1, 13]: 22.4 ± 3.1
- persevering resp [1, 13]: 24.8 ± 2.8
- total nr of resp [1, 13]: 77.6 ± 3.1
- % correct resp [1, 14]: 69.6 ± 2.6%
- nr anticipatory resp [1, 14]: 104.3 ± 18.4
- nr of correct resp [1, 14]: 55.2 ± 2.8
- nr of fault resp [1, 14]: 24.4 ± 2.4
- nr of missed resp [1, 14]: 20.4 ± 3.6
- persevering resp [1, 14]: 16.3 ± 2.1
- total nr of resp [1, 14]: 79.6 ± 3.6
- % correct resp [1, 15]: 70.1 ± 3.1%
- nr anticipatory resp [1, 15]: 78.6 ± 14.5
- nr of correct resp [1, 15]: 52.7 ± 3.9
- nr of fault resp [1, 15]: 21.6 ± 2.0
- nr of missed resp [1, 15]: 25.8 ± 3.7
- persevering resp [1, 15]: 17.3 ± 3.4
- total nr of resp [1, 15]: 74.3 ± 3.7
- effect on increase in anticipatory responses induced by MK801 ([1]; table 3): antagonize
- effect on increase in persevering responses induced by MK801 ([1]; table 3): antagonize
- number of anticipatory responses ([3]; 1 mg/kg i.p.): 50.2 ± 4.9
- number of correct responses ([3]; 1 mg/kg i.p.): 52.2 ± 3.2
- number of fault responses ([3]; 1 mg/kg i.p.): 19.4 ± 2.2
- number of missed responses ([3]; 1 mg/kg i.p.): 28.4 ± 3.2
- percentage of correct responses ([3]; 1 mg/kg i.p.): 72.9 ± 3.1%
- persevering responses ([3]; 1 mg/kg i.p.): 7.8 ± 1.4
- total number of responses ([3]; 1 mg/kg i.p.): 71.6 ± 3.2
- number of anticipatory responses ([3]; 3 mg/kg i.p.): 51.3 ± 7.5
- number of correct responses ([3]; 3 mg/kg i.p.): 51.9 ± 3.1
- number of fault responses ([3]; 3 mg/kg i.p.): 20.1 ± 2.2
- number of missed responses ([3]; 3 mg/kg i.p.): 28.0 ± 2.2
- percentage of correct responses ([3]; 3 mg/kg i.p.): 71.9 ± 3.2%
- persevering responses ([3]; 3 mg/kg i.p.): 8.8 ± 1.2
- total number of responses ([3]; 3 mg/kg i.p.): 72.0 ± 2.2
- number of anticipatory responses ([3]; 10 mg/kg i.p.): 34.5 ± 3.9
- number of correct responses ([3]; 10 mg/kg i.p.): 48.5 ± 3.9
- number of fault responses ([3]; 10 mg/kg i.p.): 17.5 ± 2.0
- number of missed responses ([3]; 10 mg/kg i.p.): 34.0 ± 2.9
- percentage of correct responses ([3]; 10 mg/kg i.p.): 72.6 ± 3.6%
- persevering responses ([3]; 10 mg/kg i.p.): 5.5 ± 0.9
- total number of responses ([3]; 10 mg/kg i.p.): 66.0 ± 2.9
- effect on number of anticipatory responses ([3]; at 10 mg/kg, table 2): reduced
